For data set [1], the system named is Crohn's and ulcerative colitis patients. The conditions noted are these: studies evaluating long-term clinical outcomes; cited from earlier work.
The test system of another data set is biosimilar AVASTIN®. Kind of data set: Viscosity of aqueous solutions of biosimilar AVASTIN® with viscosity-lowering agents. Format: physicochemical. The conditions noted are these: for Magnitude of viscosity-lowering effect (replacement of PB with CSAL): 0.25 M.
The next data set deals with branded AVASTIN®. Briefly: Viscosity of aqueous solutions of branded AVASTIN®. Format: physicochemical. The conditions noted are these: 205 ± 5 mg/mL mAb. The procedure:
(§1) (unless otherwise indicated).
Subsequently, the appropriate amount of viscosity-lowering agent was added to result in a final viscosity-lowering agent concentration of 0.15-0.35 M upon reconstitution.

Another data set relates to REMICADE®. Kind of data set: Viscosity of aqueous solutions of […]® with viscosity-lowering agents. To be noted: 0.25M agent, 25° C., pH 7.0. Format: physicochemical. The procedure:
as §1
An extrapolated zero-shear viscosity was determined from a plot of absolute viscosity versus shear rate.
Following reconstitution, the viscosity of each solution was measured using the microfluidic viscometer as described in previous examples. The solutions were then back-loaded into 1 mL BD insulin syringes with 27, 29, or 31 gauge fixed needles. The force required to extrude the concentrated […]® solutions was then measured using an Instron at a rate of displacement equivalent to a fluid flow rate of 3 mL/min. The expelled solution was collected from the syringe and analyzed by size-exclusion chromatography.

The test system of another data set is bovine gamma globulin. Kind of data set: Viscosity of aqueous gamma globulin solutions on two viscometers. Format: physicochemical. The conditions noted are these: without CSAL, or with 0.25M CSAL (label CSAL), 25° C., pH 7.0. The procedure:
as §1
Aqueous solutions containing 220 mg/mL […]® and 0.25 M CSAA were prepared as described above Example 1. The viscosities at 25° C. and pH 7.0 are reported in Table 29 as extrapolated zero-shear viscosities from cone and plate viscometer measurements and as absolute viscosities measured with a microfluidic viscometer. […] An extrapolated zero-shear viscosity was determined from a plot of absolute viscosity versus shear rate.
In order to compare a broader range of viscosities and protein concentrations, aqueous solutions of a model antibody, bovine gamma globulin, were prepared with and without 0.25 M CSAL. The viscosities were measured as described above at protein concentrations ranging from 110 mg/mL to 310 mg/mL.

The subject of a further data set is biosimilar ERBITUX®. Briefly: Viscosity of aqueous solutions of biosimilar ERBITUX® with viscosity-lowering agents.
[2] abbreviates: 155 ± 5 mg/mL mAb, pH 7.0, 25° C., [CSAL] 0.25 M.
The mark [3] stands for this setting: 155 ± 5 mg/mL mAb, pH 7.0, 25° C., [CSAL] 0.38 M.
Where [4] appears, read: 155 ± 5 mg/mL mAb, pH 7.0, 25° C., [CSAL] 0.50 M.

As for “Vedolizumab: mAb being developed by Millennium Pharmaceuticals for ulcerative colitis and Crohn's disease”, in data set [1], the “Patients achieving clinical remission” value is ~60%.
With camphorsulfonic acid lysine [CSAL], the “Magnitude of viscosity-lowering effect (replacement of PB with CSAL)” value was found to be 2.1 fold in the data set with biosimilar AVASTIN® (80 mg/mL mAb, 25° C., pH 7.0); 3.7 fold with biosimilar AVASTIN® (230±5 mg/mL mAb, 25° C., pH 7.0); 1.1 fold in the data set with biosimilar ERBITUX® (100±5 mg/mL mAb, 0.25 M, 25° C., pH 7.0); 10.3 fold in the data set with biosimilar ERBITUX® (pH 7). Besides, the Viscosity with biosimilar AVASTIN® (210 mg/mL mAb, 0.25 M agent, 25° C., pH 7.0) is 63.0 ± 1.8 cP; in the data set on biosimilar AVASTIN® (101 ± 5 mg/mL mAb, pH 7.0, 25° C., formulation per label (CSAL 0.25M)), 4.03 ± 0.24 cP; in the data set on biosimilar AVASTIN® (200 ± 5 mg/mL mAb, pH 7.0, 25° C., [Salt] 0.25 M of anion, C & P viscometer), 54.9 ± 0.9 cP; in the data set on biosimilar AVASTIN® (228 ± 5 mg/mL mAb, agent 0.25 M, 25° C., pH 7.0) it was 113 ± 0 cP; in the data set on biosimilar AVASTIN® (230 ± 5 mg/mL mAb, pH 7.0, 0.25M, 20° C.), 152 ± 0 cP; in the data set with biosimilar AVASTIN® (230 ± 5 mg/mL mAb, pH 7.0, 0.25M, 25° C.) it was 107 ± 4 cP. Moreover, the Viscosity in the data set with biosimilar AVASTIN® (230 ± 5 mg/mL mAb, pH 7.0, 0.25M, 30° C.) amounted to 95.5 ± 5.4 cP; in the data set on biosimilar AVASTIN® (230 ± 5 mg/mL mAb, pH 7.0, […], 20° C.) it was 157 ± 0 cP; in the data set on biosimilar AVASTIN® (230 ± 5 mg/mL mAb, pH 7.0, […], 25° C.) it was 113 ± 0 cP; in the data set on biosimilar AVASTIN® (230 ± 5 mg/mL mAb, pH 7.0, […], 30° C.), 91.7 ± 3.3 cP; in the data set on REMICADE® (166 ± 4 mg/mL REMICADE) it was 27.4 ± 0.2 cP; in the data set on REMICADE® (222 ± 6 mg/mL REMICADE) it was 95.3 ± 1.1 cP. Further, the Viscosity in the data set with bovine gamma globulin (170 mg/mL gamma globulin, C & P) was found to be 10.3 ± 1.0 cP; in the data set with bovine gamma globulin (170 mg/mL gamma globulin, microfluidic), 10.6 ± 0.1 cP; in the data set on bovine gamma globulin (260 mg/mL gamma globulin, C & P), 93.5 ± 1.2 cP; with bovine gamma globulin (260 mg/mL gamma globulin, microfluidic), 85.3 ± 0.3 cP; with bovine gamma globulin (310 mg/mL gamma globulin, C & P), 223 ± 1 cP; in the data set on bovine gamma globulin (310 mg/mL gamma globulin, microfluidic) it was 203 ± 2 cP. The Viscosity in the data set with biosimilar ERBITUX® (80 ± 5 mg/mL mAb, pH 7.0, 25° C., formulation per label (CSAL 0.25M)) is given as 3.08 ± 0.18 cP; in the data set with biosimilar ERBITUX® (155 ± 5 mg/mL mAb, pH 7.0, 25° C., [CSAL] 0 M (0.25 M phosphate buffer control)) it was 154 ± 0 cP; in the data set on biosimilar ERBITUX® (setting [2]) it was 18.3 ± 0.0 cP; in the data set on biosimilar ERBITUX® (setting [3]), 14.9 ± 0.1 cP; in the data set with biosimilar ERBITUX® (setting [4]), 12.7 ± 0.1 cP; in the data set on biosimilar ERBITUX® (222 ± 5 mg/mL mAb, pH 7.0, 0.25M agent, 25° C.) it was 109 ± 1 cP. Besides, the Viscosity in the data set with biosimilar ERBITUX® (225 ± 5 mg/mL mAb, pH 7.0, 0.25M agent, 20° C.) stood at 166 ± 2 cP; in the data set on biosimilar ERBITUX® (225 ± 5 mg/mL mAb, pH 7.0, 0.25M agent, 25° C.), 109 ± 1 cP; in the data set with biosimilar ERBITUX® (225 ± 5 mg/mL mAb, pH 7.0, 0.25M agent, 30° C.) it was 78.4 ± 1.5 cP. Further, the “Fold decrease in viscosity in the presence of CSAL” value with biosimilar AVASTIN® (0.25 M CSAL vs original excipients, 101 ± 5 mg/mL mAb, pH 7.0, 25° C.) was 1.5 fold; in the data set with biosimilar ERBITUX® (0.25 M CSAL vs original excipients, 80 ± 5 mg/mL mAb, pH 7.0, 25° C.), 2.7 fold. The “Fold reduction in viscosity” value is on record as 1.8 fold with biosimilar AVASTIN® (0.25 M CSAL vs phosphate buffer, 205 ± 5 mg/mL mAb) and 3.3 fold in the data set with branded AVASTIN® (0.25 M CSAL vs phosphate buffer). Also, the “Viscosity, Biosimilar AVASTIN ®” value in the data set on biosimilar AVASTIN® (205 ± 5 mg/mL mAb, phosphate buffer or 0.25M CSAL, 25° C., pH 7.0) was determined as 54.9 ± 0.9 cP. Also, in the data set on branded AVASTIN® (phosphate buffer or 0.25M CSAL, 25° C., pH 7.0), the “Viscosity, Branded AVASTIN ®” value was determined as 46.7 ± 0.9 cP. The “Fold viscosity reduction (compared to no CSAL present)” value is recorded as 1 fold with biosimilar ERBITUX® (155 ± 5 mg/mL mAb, pH 7.0, 25° C., [CSAL] 0 M); 8.4 fold in the data set on biosimilar ERBITUX® (setting [2]); 10.3 fold in the data set on biosimilar ERBITUX® (setting [3]); 12.1 fold in the data set with biosimilar ERBITUX® (setting [4]). Also, the “Fold Reduction” value in the data set on biosimilar ERBITUX® (vs phosphate buffer, 222 ± 5 mg/mL mAb, pH 7.0, 0.25M agent, 25° C.) came out at 10.4 fold.
